From US20110281917A1, “Substituted Benzimidazoles for the Treatment of Astrocytomas” (priority 2009, published 2011)

Assays:
phospho-ERK = phospho-ERK ELISA in ST88 cells; format: cell-based
Text: (§1) Pathway inhibition and anti-proliferative activity of RAF265 in ST88 cells.

phospho-MEK = phospho-MEK ELISA in ST88 cells; format: cell-based
Text: as §1

[1] = test system: VEGF-CHO cells induced angiogenesis; experiment: Matrigel plug angiogenesis model with VEGF-CHO cells, hemoglobin by Drabkin's reagent; format: in vivo; settings: mice, dosed days 1 and 4, plugs excised day 5
Text: Due to the inhibition of VEGFR-2, RAF265 also has anti-angiogenic activity which may also provide a therapeutic benefit in treating neurofibromas. To confirm that RAF265 inhibits the growth of new blood vessels (i.e., angiogenesis) in vivo, mice were implanted with Matrigel® containing Chinese hamster ovary cells (CHO) overexpressing VEGF and then treated mice with a dose range of RAF265 or a vehicle control (days 1 and 4). In this model, VEGF expressed from the CHO cells induces angiogenesis within the Matrigel® plug. Plugs are excised on day 5 and assayed for hemoglobin using Drabkin's reagent, as a measure of the degree of angiogenesis.

ST88 cells = experiment: Proliferation of ST88 cells; format: cell-based
Text: as §1

Cn1c(Nc2ccc(C(F)(F)F)cc2)nc2cc(Oc3ccnc(-c4ncc(C(F)(F)F)[nH]4)c3)ccc21 [Compound of Example 1]
EC50 (phospho-ERK): 185 nM
EC50 (phospho-MEK): 150 nM
dose of maximal suppression of hemoglobin content [1]: 50 mg/kg
hemoglobin content of Matrigel plug [1]: dose-dependent decrease in hemoglobin content
EC50 (ST88 cells): 207 nM
